Assay results taken from US10774064B2 (Cadent Therapeutics, Inc., priority 2016, dated 2020).

Biological target: T1, small-conductance Ca2+-activated K+ channels (SK channels, subtype 2) (Homo sapiens, UniProt Q9H2S1)
T1 construct: expressed in transfected cells; host or cells: HEK293
Test: whole-cell patch-clamp of ionic current through SK2 channels in HEK293 cells (SC100)
Assay type: cell-based
Details: concentration that increases the basal current by 100%; HEK293 cells expressing SK2 channels
In short: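 SC100, the concentration doubling basal current (a 100% increase), was taken from SK2 currents recorded by whole-cell patch-clamp in SK2-expressing HEK293 cells.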

SMILES	SC100
COC(=O)N1CC(Oc2cc(NC3CCC(F)(F)CC3)nc(-c3nc(C(C)O)cs3)n2)C1 (stereo not shown) [Compound 344, methyl 3-((6-((4,4-difluorocyclohexyl)amino)-2-(4-(1-hydroxyethyl)thiazol-2-yl)pyrimidin-4-yl)oxy)azetidine-1-carboxylate]	+ (+ means >1 uM)
CCc1cc(C)n(-c2nc(C)cc(NC3CCC(F)(F)CC3)n2)n1 [Compound 249, N-(4,4-difluorocyclohexyl)-2-(3-ethyl-5-methyl-1H-pyrazol-1-yl)-6-methyl pyrimidin-4-amine]	+ (+ means >1 uM)
Cc1cc(C)n(-c2nc(NC3CCC(F)(F)C3)cc(C3CC3)n2)n1 (stereo not shown) [Compound 217, 6-cyclopropyl-N-(3,3-difluorocyclopentyl)-2-(3,5-dimethyl-1H-pyrazol-1-yl)pyrimidin-4-amine]	+ (+ means >1 uM)
Cc1cc(C)n(-c2nc(NC3CCC(F)(F)CC3)cc(N[C@H]3CCN(C)C3=O)n2)n1 (single isomer, unassigned) [Compound 128, (+)-3-((6-((4,4-difluorocyclohexyl)amino)-2-(3,5-dimethyl-1H-pyrazol-1-yl)pyrimidin-4-yl)amino)-1-methylpyrrolidin-2-one]	+ (+ means >1 uM)
Cc1cc(C)n(-c2nc(NC3CCC(F)(F)CC3)cc(N3CC4(COC4)C3)n2)n1 [Compound 105, N-(4,4-difluorocyclohexyl)-2-(3,5-dimethyl-1H pyrazol-1-yl)-6-(2-oxa-6-azaspiro[3.3]heptan-6-yl)pyrimidin-4-amine]	+ (+ means >1 uM)
Cc1cc(NC2CCC(F)(F)CC2)nc(-n2ccc(CC#N)n2)n1 [Compound 208, 2-(1-(4-((4,4-difluorocyclohexyl)amino)-6-methylpyrimidin-2-yl)-1H-pyrazol-3-yl)acetonitrile]	++ (++ means 200 nM-1000 nM)
CC(=O)N1CCN(c2cc(NC3CCC(F)(F)CC3)nc(-n3nc(C)cc3C)n2)CC1 [Compound 102, 1-(4-(6-((4,4-difluorocyclohexyl)amino)-2-(3,5-dimethyl-1H-pyrazol-1-yl)pyrimidin-4-yl)piperazin-1-yl)ethan-1-one]	++ (++ means 200 nM-1000 nM)
CC(O)c1ccn(-c2nc(NC3CCC(F)(F)CC3)cc(OC3CN(C(=O)C(C)(C)C)C3)n2)n1 (stereo not shown) [Compound 315, 1-(3-((6-((4,4-difluorocyclohexyl)amino)-2-(3-(1-hydroxyethyl)-1H-pyrazol-1-yl)pyrimidin-4-yl)oxy)azetidin-1-yl)-2,2-dimethylpropan-1-one]	+ (+ means >1 uM)
Cc1cc(C)n(-c2nc3c(c(NC4CCC(F)(F)CC4)n2)CCN(Cc2ccccc2)C3)n1 [Compound 116]	++ (++ means 200 nM-1000 nM)
Cc1cc(C)n(-c2nc(NC3CCC(F)(F)CC3)cc(C(F)(F)F)n2)n1 [Compound 162, N-(4,4-difluorocyclohexyl)-2-(3,5-dimethyl-1H-pyrazol-1-yl)-6-(trifluoromethyl)pyrimidin-4-amine]	++ (++ means 200 nM-1000 nM)
Cc1cc(C)n(-c2cc(OCc3ccc(F)cc3)cc(NC3CCC(F)(F)CC3)n2)n1 [Compound 263, N-(4,4-difluorocyclohexyl)-6-(3,5-dimethyl-1H-pyrazol-1-yl)-4-((4-fluorobenzyl)oxy)pyridin-2-amine]	++ (++ means 200 nM-1000 nM)
Cc1cc(NC2CCC(F)(F)CC2)nc(-n2ccc(C(C)O)n2)n1 (stereo not shown) [Compound 202, 1-(1-(4-((4,4-difluorocyclohexyl)amino)-6-methylpyrimidin-2-yl)-1H-pyrazol-3-yl)ethan-1-ol]	+ (+ means >1 uM)
Cc1cc(NC2CCC(F)(F)CC2)nc(-c2nc(C(F)F)cs2)n1 [Compound 277, N-(4,4-difluorocyclohexyl)-2-(4-(difluoromethyl)thiazol-2-yl)-6-methylpyrimidin-4-amine]	++ (++ means 200 nM-1000 nM)

Same assay, conditions: whole-cell patch-clamp, HEK293 cells expressing SK2 channels; concentration that increases the basal current by 100%

SMILES	SC100 (μM)
Cc1cc(C)n(-c2cc(C)c(CNC3CCC(F)(F)CC3)nn2)n1 [IN11054-078-P1, N-((6-(3,5-dimethyl-1H-pyrazol-1-yl)-4-methylpyridazin-3-yl)methyl)-4,4-difluorocyclohexan-1-amine]	+ (+ means >1 uM)
Cc1csc(-c2nc(NC3CCC(F)(F)CC3)cc(NC3COC3)n2)n1 [IN10882-040-P1]	+ (+ means >1 uM)
Cc1csc(-c2nc(NC3CCC(F)(F)CC3)cc(OC3CCCn4nncc43)n2)n1 (stereo not shown) [NSSy6007]	++ (++ means 200 nM-1000 nM)
Cc1csc(-c2cc(C#N)nc(NC3CCC(F)(F)CC3)n2)n1 [NSSy6710, 2-((4,4-difluorocyclohexyl)amino)-6-(4-methylthiazol-2-yl)pyrimidine-4-carbonitrile]	+ (+ means >1 uM)
Cc1csc(-c2cc(C(O)c3ncco3)cc(NC3CCC(F)(F)CC3)n2)n1 (stereo not shown) [NSSy6563]	++ (++ means 200 nM-1000 nM)
Cc1csc(-c2nc(C)c(F)c(NC3CCC(F)(F)CC3)n2)n1 [IN11106-077-P1, N-(4,4-difluorocyclohexyl)-5-fluoro-6-methyl-2-(4-methylthiazol-2-yl)pyrimidin-4-amine]	++ (++ means 200 nM-1000 nM)
Cc1ccn(-c2nc(NC3CCC(F)(F)CC3)cc(OCCC#N)n2)n1 [IN11030-095-P1]	+ (+ means >1 uM)
Cc1ccn(-c2nc(NC3CCC(F)(F)CC3)cc(N3C[C@@H]4C[C@H]3CO4)n2)n1 [NSSy6394]	+ (+ means >1 uM)
Cc1ccn(-c2cc(N3CCNCC3)nc(NC3CCC(F)(F)CC3)n2)n1 [NSSy6679]	++ (++ means 200 nM-1000 nM)
Cc1csc(-c2nc(NC3CCC(F)(F)CC3)cc(C(C)n3cccn3)n2)n1 (stereo not shown) [IN11133-002-P1, 6-(1-(1H-pyrazol-1-yl)ethyl)-N-(4,4-difluorocyclohexyl)-2-(4-methylthiazol-2-yl)pyrimidin-4-amine]	+ (+ means >1 uM)
COc1cc(NC2CCCOC2)nc(-c2nc(C)cs2)n1 (stereo not shown) [IN11106-027-P1]	+ (+ means >1 uM)
Cc1ccn(-c2nc(NC3CCC(C(N)=O)CC3)cc(N3CCOCC3)n2)n1 (stereo not shown) [NSSy6541]	+ (+ means >1 uM)
COC(=O)NCc1cc(NC2CCC(F)(F)CC2)nc(-n2ccc(C)n2)c1 [NSSy5635]	++ (++ means 200 nM-1000 nM)
COc1cc(NC2CCCC2)nc(-c2nc(C)cs2)n1 [IN11055-066-P1]	+ (+ means >1 uM)
Cc1ccn(-c2nc(NC3CCC(F)CC3)cc(N3CCOCC3)n2)n1 (stereo not shown) [NSSy5662]	+ (+ means >1 uM)
Cc1csc(-c2nc(NC3CCC(F)(F)CC3)cc(N3CCCCC3)n2)n1 [IN10881-021.P1]	++ (++ means 200 nM-1000 nM)
C/C(=N\O)Nc1cc(NC2CCC(F)(F)CC2)nc(-c2nc(C)no2)n1 [NSSy5830, (E)-N-(6-((4,4-difluorocyclohexyl)amino)-2-(3-methyl-1,2,4-oxadiazol-5-yl)pyrimidin-4-yl)-N′-hydroxyacetimidamide]	+ (+ means >1 uM)

SMILES	SC100 (μM)
COC(=O)NCc1cc(NC2CCC(F)(F)CC2)nc(-c2nc(C)cs2)c1 [IN11130-047-P1]	+++ (+++ means <200 nM)
Cc1ccn(-c2nc(NCC3CCOC3)cc(C(C)O)n2)n1 (stereo not shown) [IN10880-058-P1]	+ (+ means >1 uM)
Cc1ccc(OCc2cc(NC3CCC(F)(F)CC3)nc(-n3ccc(C)n3)c2)nn1 [NSSy5828, N-(4,4-difluorocyclohexyl)-6-(3-methyl-1H-pyrazol-1-yl)-4-(((6-methylpyridazin-3-yl)oxy)methyl)pyridin-2-amine]	+++ (+++ means <200 nM)
COCc1cc(NC2CC(F)(F)C2)nc(-n2nc(C)cc2C)n1 [IN11108-038-P1, N-(3,3-difluorocyclobutyl)-2-(3,5-dimethyl-1H-pyrazol-1-yl)-6-(methoxymethyl)pyrimidin-4-amine]	+ (+ means >1 uM)
Cc1ccn(-c2cc(N)nc(NC3CCC(F)(F)CC3)n2)n1 [NSSy6698, N2-(4,4-difluorocyclohexyl)-6-(3-methyl-1H-pyrazol-1-yl)pyrimidine-2,4-diamine]	+ (+ means >1 uM)
Cc1cc(NC2CCC(F)(F)CC2)nc(-n2ccc(C(=O)OC(C)C)n2)n1 [IN11251-020-P1, isopropyl 1-(4-((4,4-difluorocyclohexyl)amino)-6-methylpyrimidin-2-yl)-1H-pyrazole-3-carboxylate]	+ (+ means >1 uM)
Cc1ccn(-c2cc(OCCn3nncc3C)cc(NC3CCC(F)(F)CC3)n2)n1 [NSSy6719]	+++ (+++ means <200 nM)
CC(=O)N1CCN(c2cc(-n3ccc(CO)n3)nc(NC3CCC(F)(F)CC3)n2)CC1 [NSSy6931, 1-(4-(2-((4,4-difluorocyclohexyl)amino)-6-(3-(hydroxymethyl)-1H-pyrazol-1-yl)pyrimidin-4-yl)piperazin-1-yl)ethan-1-one]	+ (+ means >1 uM)
COc1cc(NC2CCC(C)(C)CC2)nc(-c2nc(C)cs2)n1 [IN11055-069-P1, N-(4,4-dimethylcyclohexyl)-6-methoxy-2-(4-methylthiazol-2-yl)pyrimidin-4-amine]	++ (++ means 200 nM-1000 nM)
Cc1ccn(-c2cc(CO)cc(Nc3ccc(F)cc3F)n2)n1 [NSSy6773]	++ (++ means 200 nM-1000 nM)
Cc1csc(-c2cc(N3CCN4C(=O)OCC4C3)cc(NC3CCC(F)(F)CC3)n2)n1 (stereo not shown) [NSSy5824]	+++ (+++ means <200 nM)
Cc1ccn(-c2nc(NC3CCC(F)(F)CC3)cc(OC(C)C)n2)n1 [IN11053-021-P1]	+ (+ means >1 uM)
CC(=O)N1CCC(c2cc(NC3CCC(F)(F)CC3)nc(-n3ccc(C)n3)c2)CC1 [NSSy6910]	+++ (+++ means <200 nM)
Cc1ccn(-c2nc(NC3CCC(F)(F)CC3)cc(S(C)(=O)=O)[n+]2[O-])n1 [IN11059-071-P1]	+ (+ means >1 uM)
N#Cc1ccn(-c2nc(NC3CCC(F)(F)CC3)cc(N3CC4(COC4)C3)n2)n1 [NSSy5847]	+ (+ means >1 uM)
Cc1csc(-c2nc(NC3CCC(F)(F)CC3)cc(OCCNS(C)(=O)=O)n2)n1 [IN11059-052-P1]	++ (++ means 200 nM-1000 nM)
